For data set [1], the target named is 5-HT1A receptor. To be noted: cited from earlier work.
The subject of data set [2] is other receptors. The following applies: cited from earlier work.
Data set [3] deals with serotonin (5-HT1A) receptor. As to the kind of experiment: Selectivity for serotonin 5-HT1A receptor. The data set is classed as binding.
Data set [4] concerns the target T1, 5-HT1A receptor (rat hippocampal homogenates) (Rattus norvegicus, UniProt P19327).
T1 construct: in rat hippocampal membrane preparations; from tissue; host or cells: rat hippocampus (membrane preparations / tissue homogenates)
T1 sequence (P19327 1-422): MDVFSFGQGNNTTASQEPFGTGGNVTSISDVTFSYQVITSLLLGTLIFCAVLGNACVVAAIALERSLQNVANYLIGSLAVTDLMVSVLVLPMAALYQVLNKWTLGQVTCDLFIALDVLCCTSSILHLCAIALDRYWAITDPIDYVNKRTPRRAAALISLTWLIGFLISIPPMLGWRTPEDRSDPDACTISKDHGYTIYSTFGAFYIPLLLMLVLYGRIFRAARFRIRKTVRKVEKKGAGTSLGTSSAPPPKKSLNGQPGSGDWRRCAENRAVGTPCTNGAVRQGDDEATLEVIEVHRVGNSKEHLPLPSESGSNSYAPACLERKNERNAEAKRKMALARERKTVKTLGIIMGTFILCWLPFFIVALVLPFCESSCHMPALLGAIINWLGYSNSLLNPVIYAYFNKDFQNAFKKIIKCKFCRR
The data set is described as follows: Inhibition of [^125 I]-p-MPP binding to rat hippocampal homogenates. To be noted: ligand [^125 I]-p-MPP, rat hippocampal homogenates; read-out: Ki.

Data set [5] is described as follows: Regional brain distribution in rats after iv injection. Format: in vivo, Male Sprague-Dawley rats. To be noted: rat; for tissue uptake at 0.5 h: 30 min; for tissue uptake at 2 h: 120 min.
Method: (§1) While the rats were under ether anesthesia, 0.2 mL of a saline solution containing [^123 I]1a and 1b (8-10 μCi) was injected directly into the femoral vein, and rats were sacrificed at various time points postinjection by cardiac excision under ether anesthesia. The organs of interest were removed and weighed and the radioactivity was counted with a Packard garnma automatic counter (Model 5000). The percentage dose per organ was calculated by a comparison of the tissue counts to suitably diluted aliquots of the injected material. Total activities of blood and muscle were calculated under the assumption that they were 7% and 40% of the total body weight, respectively.
(§2) By dissecting, weighing and counting samples from different brain regions (cortex, striatum, hippocampus, hypothalamus and cerebellum), the percentage dose/gram of the sample was calculated by comparing the sample counts with the count of the diluted initial dose.
Data set [6] deals with 5-HT1A receptor. Described as above. To be noted: ^123 I labeled, iv. The data set is classed as in vivo, Male Sprague-Dawley rats.
Method: as §1, §2
The test system of data set [7] is 5-HT1A receptor. As to the kind of experiment: Blocking studies: regional brain uptake ratios in rats. The following applies: 30 min post iv injection of tracer. The data set is classed as in vivo. The method, then:
In order to further characterize the in vivo brain uptake of 1a in rats, blocking studies were carried out to determine changes of the ratios of regional brain uptake. […] Ratios for each region were calculated based on the % dose/gram of each region divided by the same in CB. […] (HP: hippocampus; CB: cerebellum; HY: hypothalamus; CX: cortex; ST: striatum).

The target of data set [8] is T1, 5-HT1A receptor (rat hippocampal homogenates). As to the kind of experiment: Inhibition of [^125 I]-8-OH-PIPAT binding to rat hippocampal homogenates. The following applies: ligand [^125 I]-8-OH-PIPAT. From the text: The 5-HT1A binding affinity of p-, m-, o- MPPI, p-fluoro- and p-nitro-MPP derivatives (1a-f) in rat hippocampal membrane preparations with [^123 ]

A short description of data set [9]: Biodistribution in rats after iv injection. The data set is classed as in vivo, Male Sprague-Dawley rats. To be noted: average of 3 rats ± SD. The method, then: Male Sprague-Dawley rats (225-300 g), allowed free access to food and water, were used for an in vivo biodistribution study. While the rats were under ether anesthesia, 0.2 mL of a saline solution containing [^123 I]1a and 1b (8-10 μCi) was injected directly into the femoral vein, and rats were sacrificed at various time points postinjection by cardiac excision under ether anesthesia. The organs of interest were removed and weighed and the radioactivity was counted with a Packard […] automatic counter (Model 5000). The percentage dose per organ was calculated by a comparison of the tissue counts to suitably diluted aliquots of the injected material.

Data set [10] relates to α1 receptor. The following applies: relative to 5-HT1A; cited from earlier work.
A short description of data set [11]: Stability of the radiolabelled product on storage. To be noted: -20° C., at least four weeks, HPLC; 40320 min. Format: physicochemical.
A short description of data set [12]: Partition coefficient (octanol/phosphate). The following applies: octanol/0.1M phosphate, pH 7.0; read-out: P.C (partition coefficient) (converted). The data set is classed as physicochemical. From the text:
P.C = 1800 (octanol/0.1M phosphate, pH 7.0)

[13] abbreviates: cerebellum, iv, rats (Table III), read-out: Regional distribution, cerebellum.
[14] abbreviates: cortex, iv, rats (Table III), read-out: Regional distribution, cortex.
Setting [15] is: hippocampus, iv, rats (Table III), read-out: Regional distribution, hippocampus.
[16] abbreviates: hypothalamus, iv, rats (Table III), read-out: Regional distribution, hypothalamus.
Where [17] appears, read: striatum, iv, rats (Table III), read-out: Regional distribution, striatum.

The structures appear in SMILES notation. Where two headings read alike, the source gives them in different places.

By Kd is commonly meant a measure of binding affinity in units of concentration. Consider `COc1ccccc1N1CCN(CCCCNC(=O)C23CC4CC(CC(C4)C2)C3)CC1` [4-[4-(1-adamantanecarboxamido)-butyl] 1-(2-methoxyphenyl)piperazine], for which the Kd in [1] (5-HT1A receptor) is 0.4 nM. In addition, the “binding affinity to other receptors” value in [2] is listed as “devoid of binding affinity to other receptors”.
The term Ki denotes a measure of affinity in units of concentration, obtained from inhibition or displacement. `COc1ccccc1N1CCN(CCN(C(=O)c2ccc(I)cc2)c2ccccn2)CC1` [Compound 1a, 4-(2'-methoxy)phenyl-1-[2'-(N-2"-pyridinyl)-p-iodobenzamido]ethyl piperazine]: the “selectivity/affinity for serotonin 5-HT1A receptor” value in data set [3] was “unique high affinity and selectivity toward serotonin 5-HT1A sites”. Also, the Ki came to 0.96 ± 0.1 nM in data set [4] and 2.6 ± 0.7 nM in data set [8]. Moreover, the tissue uptake at 1 h in data set [5] (hippocampus, 60 minutes after iv injection, ^123 I labeled, read-out: Uptake in hippocampal tissue) was 0.13 %ID/g. Further, the “5-HT1A related specific uptake (regional distribution pattern in rat brain)” value in data set [6] is “displayed the 5-HT1A related specific uptake”. In addition, the HP/CB ratio in data set [7] ((±)8-OH-DPAT pretreated (2 mg/kg, iv, 5 min prior)) is recorded as 1.21; in data set [7] (WAY 100635 pretreated (1 mg/kg, iv, 20 min prior)), 1.07; in data set [7] (control (no pretreatment)) it was 3.69. For the same compound, the Brain uptake in data set [9] (2 min) was determined as 1.22 % dose/organ.
For `COc1ccccc1N1CCN(CCCCN2C(=O)c3ccccc3C2=O)CC1` [NAN-190, 1-(2-methoxyphenyl)-4-[4-(2-phthalimido)butyl]piperazine], the Ki in data set [1] (5-HT1A affinity) is 0.6 nM. Moreover, in data set [10], the “potency for the α1 receptor” value is listed as “equal potency for the α1 receptor”.
`COc1ccccc1N1CCN(CCN(C(=O)c2ccc([123I])cc2)c2ccccn2)CC1` [[^123 I] 1a] yielded a purity on storage in [11] above 95%. In data set [5] (setting [13]), the tissue uptake at 2 min is 0.64 ± 0.08 %ID/g, the tissue uptake at 0.5 h was found to be 0.07 ± 0.006 %ID/g and the tissue uptake at 2 h is 0.024 ± 0.0002 %ID/g. Besides, in [5] (cerebellum, 60 min, iv, rats (Table III), read-out: Regional distribution, cerebellum), the tissue uptake at 1 h is 0.04 ± 0.001 %ID/g. Besides, in [5] (setting [14]), the tissue uptake at 2 min was 0.91 ± 0.06 %ID/g, the tissue uptake at 0.5 h was 0.11 ± 0.01 %ID/g and the tissue uptake at 2 h came out at 0.026 ± 0.002 %ID/g. Also, the tissue uptake at 1 h in data set [5] (cortex, 60 min, iv, rats (Table III), read-out: Regional distribution, cortex) is 0.061 ± 0.002 %ID/g. Further, in [5] (setting [15]), the tissue uptake at 2 min came to 0.87 ± 0.18 %ID/g, the tissue uptake at 0.5 h was 0.23 ± 0.007 %ID/g and the tissue uptake at 2 h is 0.04 ± 0.003 %ID/g. Further, the tissue uptake at 1 h in data set [5] (hippocampus, 60 min, iv, rats (Table III), read-out: Regional distribution, hippocampus) was 0.127 ± 0.009 %ID/g. Moreover, in data set [5] (setting [16]), the tissue uptake at 2 min amounted to 0.67 ± 0.1 %ID/g, the tissue uptake at 0.5 h came to 0.14 ± 0.04 %ID/g and the tissue uptake at 2 h stood at 0.03 ± 0.0002 %ID/g. Besides, in data set [5] (hypothalamus, 60 min, iv, rats (Table III), read-out: Regional distribution, hypothalamus), the tissue uptake at 1 h stood at 0.051 ± 0.004 %ID/g. In data set [5] (setting [17]), the tissue uptake at 2 min was 0.76 ± 0.12 %ID/g, the tissue uptake at 0.5 h amounted to 0.09 ± 0.0001 %ID/g and the tissue uptake at 2 h was 0.021 ± 0.0007 %ID/g. Also, the tissue uptake at 1 h in [5] (striatum, 60 min, iv, rats (Table III), read-out: Regional distribution, striatum) stood at 0.046 ± 0.004 %ID/g. Also, the logD in data set [12] was 3.26. In [9] (2 min), this compound returned a Blood uptake of 4.49 ± 0.55 % dose/organ, a Brain uptake of 1.22 ± 0.22 % dose/organ, a Heart uptake of 0.91 ± 0.09 % dose/organ and a Kidney uptake of 5.20 ± 0.44 % dose/organ. In data set [9] (2 min), this compound gave a Liver uptake of 14.2 ± 3.1 % dose/organ, a Lung uptake of 2.39 ± 0.10 % dose/organ, a Muscle uptake of 11.29 ± 4.15 % dose/organ and a Skin uptake of 8.34 ± 1.22 % dose/organ. Further, in data set [9] (2 min), the Spleen uptake was found to be 0.37 ± 0.13 % dose/organ and the Thyroid uptake came out at 0.09 ± 0.02 % dose/organ. Also, in [9] (30 min), the Blood uptake amounted to 4.04 ± 1.24 % dose/organ, the Brain uptake was 0.22 ± 0.01 % dose/organ, the Heart uptake is 0.18 ± 0.04 % dose/organ and the Kidney uptake is 1.74 ± 0.49 % dose/organ. In data set [9] (30 min), the Liver uptake was determined as 8.71 ± 0.20 % dose/organ, the Lung uptake was 0.48 ± 0.05 % dose/organ, the Muscle uptake is 7.58 ± 2.48 % dose/organ and the Skin uptake is listed as 8.24 ± 1.60 % dose/organ. In data set [9] (30 min), this compound displayed a Spleen uptake of 0.14 ± 0.02 % dose/organ and a Thyroid uptake of 0.03 ± 0.02 % dose/organ. In [9] (60 min), this compound had a Blood uptake of 2.73 ± 0.09 % dose/organ, a Brain uptake of 0.12 ± 0.005 % dose/organ, a Heart uptake of 0.13 ± 0.02 % dose/organ and a Kidney uptake of 1.06 ± 0.23 % dose/organ. Also, in data set [9] (60 min), the Liver uptake amounted to 7.53 ± 0.99 % dose/organ, the Lung uptake is reported as 0.31 ± 0.04 % dose/organ, the Muscle uptake worked out at 4.34 ± 0.91 % dose/organ and the Skin uptake was determined as 4.51 ± 1.00 % dose/organ. In data set [9] (60 min), this compound had a Spleen uptake of 0.11 ± 0.04 % dose/organ and a Thyroid uptake of 0.02 ± 0.007 % dose/organ. Also, in data set [9] (120 min), the Blood uptake is given as 2.05 ± 0.30 % dose/organ, the Brain uptake is 0.05 ± 0.002 % dose/organ, the Heart uptake is on record as 0.07 ± 0.003 % dose/organ and the Kidney uptake was determined as 0.62 ± 0.11 % dose/organ. In data set [9] (120 min), this compound gave a Liver uptake of 5.16 ± 1.01 % dose/organ, a Lung uptake of 0.18 ± 0.002 % dose/organ, a Muscle uptake of 2.14 ± 0.15 % dose/organ and a Skin uptake of 5.82 ± 4.37 % dose/organ. In data set [9] (120 min), this compound showed a Spleen uptake of 0.07 ± 0.009 % dose/organ and a Thyroid uptake of 0.02 ± 0.01 % dose/organ.

Source of the values: patent US5744121A (priority 1996, dated 1998).
